Assay results as given in patent publication US9211310B2, “Use of a Chinese medicine composition in preparing medicaments for treating secondary prevention of myocardial infarction” (TASLY PHARMACEUTICAL GROUP CO., LTD, priority 2010, dated 2015).

System: patients after acute myocardial infarction
Experiment: TCM symptom score, total and single (chest pain, chest tightness, short breath, fatigue, palpitation, spontaneous perspiration, pale complexion), same clinical trial
Assay type: in vivo, human
From the text: 3508 patients who were in accordance with the diagnostic standards of AMI for 28 days to 2 years and differentiated as Qi deficiency and blood stagnation syndrome by TCM were studied. 0.5 g Chinese medicine composition prepared by the method of EXAMPLE 1 (Coded as QSYQ) was administrated half an hour after meal, 3 times per day.
They included the overall survival time, angina pectoris score, TCM symptom score and life quality score, where angina pectoris score, TCM symptom score and life quality score were evaluated at randomization, in 1st, 3rd, 6th, 9th, 12th month after treatment and 18th month after follow-up.
The analysis method referred to the angina pectoris score.

[1] = 9 months after treatment-baseline, FAS
[2] = 9 months after treatment-baseline, PP
[3] = 12 months after treatment-baseline, FAS

Question: What does the source list for `CC(=O)Oc1ccccc1C(=O)O` [Control group, aspirine]?
Answer: chest pain score 0, percent of patients (6 months after treatment, PP): (42.93%); chest pain score 3, number of patients (6 months after treatment, PP): 539; chest pain score 3, percent of patients (6 months after treatment, PP): (37.75%); chest pain score 6, number of patients (6 months after treatment, PP): 272; chest pain score 6, percent of patients (6 months after treatment, PP): (19.05%); chest pain score 9, number of patients (6 months after treatment, PP): 4; chest pain score 9, percent of patients (6 months after treatment, PP): (0.28%); chest tightness score 0, number of patients (6 months after treatment, PP): 613; chest tightness score 0, percent of patients (6 months after treatment, PP): (42.93%); chest tightness score 3, number of patients (6 months after treatment, PP): 539; chest tightness score 3, percent of patients (6 months after treatment, PP): (37.75%); chest tightness score 6, number of patients (6 months after treatment, PP): 272; chest tightness score 6, percent of patients (6 months after treatment, PP): (19.05%); chest tightness score 9, number of patients (6 months after treatment, PP): 4; chest tightness score 9, percent of patients (6 months after treatment, PP): (0.28%); change of chest pain score 0, number of patients [1]: 1022; change of chest pain score 0, percent of patients [1]: (59.80%); change of chest pain score 3, number of patients [1]: 463; change of chest pain score 3, percent of patients [1]: (27.09%); change of chest pain score 6, number of patients [1]: 124; change of chest pain score 6, percent of patients [1]: (7.26%); change of chest pain score 9, number of patients [1]: 6; change of chest pain score 9, percent of patients [1]: (0.35%); change of chest pain score −3, number of patients [1]: 81; change of chest pain score −3, percent of patients [1]: (4.74%); change of chest pain score −6, number of patients [1]: 13; change of chest pain score −6, percent of patients [1]: (0.76%); change of chest pain score −9, number of patients [1]: 0; change of chest pain score −9, percent of patients [1]: (0.00%); change of chest tightness score 0, number of patients [1]: 1007; change of chest tightness score 0, percent of patients [1]: (58.92%); change of chest tightness score 3, number of patients [1]: 534; change of chest tightness score 3, percent of patients [1]: (31.25%); change of chest tightness score 6, number of patients [1]: 68; change of chest tightness score 6, percent of patients [1]: (3.98%); change of chest tightness score 9, number of patients [1]: 4; change of chest tightness score 9, percent of patients [1]: (0.23%); change of chest tightness score −3, number of patients [1]: 93; change of chest tightness score −3, percent of patients [1]: (5.44%); change of chest tightness score −6, number of patients [1]: 3; change of chest tightness score −6, percent of patients [1]: (0.18%); change of chest tightness score −9, number of patients [1]: 0; change of chest tightness score −9, percent of patients [1]: (0.00%); change of chest pain score 0, number of patients [2]: 826; change of chest pain score 0, percent of patients [2]: (58.58%); change of chest pain score 3, number of patients [2]: 409; change of chest pain score 3, percent of patients [2]: (29.01%); change of chest pain score 6, number of patients [2]: 106; change of chest pain score 6, percent of patients [2]: (7.52%); change of chest pain score 9, number of patients [2]: 4; change of chest pain score 9, percent of patients [2]: (0.28%); change of chest pain score −3, number of patients [2]: 58; change of chest pain score −3, percent of patients [2]: (4.11%); change of chest pain score −6, number of patients [2]: 7; change of chest pain score −6, percent of patients [2]: (0.50%); change of chest pain score −9, number of patients [2]: 0; change of chest pain score −9, percent of patients [2]: (0.00%); change of chest tightness score 0, number of patients [2]: 801; change of chest tightness score 0, percent of patients [2]: (56.81%); change of chest tightness score 3, number of patients [2]: 476; change of chest tightness score 3, percent of patients [2]: (33.76%); change of chest tightness score 6, number of patients [2]: 62; change of chest tightness score 6, percent of patients [2]: (4.40%); change of chest tightness score 9, number of patients [2]: 3; change of chest tightness score 9, percent of patients [2]: (0.21%); change of chest tightness score −3, number of patients [2]: 65; change of chest tightness score −3, percent of patients [2]: (4.61%); change of chest tightness score −6, number of patients [2]: 3; change of chest tightness score −6, percent of patients [2]: (0.21%); change of chest tightness score −9, number of patients [2]: 0; change of chest tightness score −9, percent of patients [2]: (0.00%); chest pain score 0, number of patients (9 months after treatment, FAS): 791; chest pain score 0, percent of patients (9 months after treatment, FAS): (46.04%); chest pain score 3, number of patients (9 months after treatment, FAS): 618; chest pain score 3, percent of patients (9 months after treatment, FAS): (35.97%); chest pain score 6, number of patients (9 months after treatment, FAS): 305; chest pain score 6, percent of patients (9 months after treatment, FAS): (17.75%); chest pain score 9, number of patients (9 months after treatment, FAS): 4; chest pain score 9, percent of patients (9 months after treatment, FAS): (0.23%); chest tightness score 0, number of patients (9 months after treatment, FAS): 791; chest tightness score 0, percent of patients (9 months after treatment, FAS): (46.04%); chest tightness score 3, number of patients (9 months after treatment, FAS): 618; chest tightness score 3, percent of patients (9 months after treatment, FAS): (35.97%); chest tightness score 6, number of patients (9 months after treatment, FAS): 305; chest tightness score 6, percent of patients (9 months after treatment, FAS): (17.75%); chest tightness score 9, number of patients (9 months after treatment, FAS): 4; chest tightness score 9, percent of patients (9 months after treatment, FAS): (0.23%); chest pain score 0, number of patients (9 months after treatment, PP): 661; chest pain score 0, percent of patients (9 months after treatment, PP): (46.71%); chest pain score 3, number of patients (9 months after treatment, PP): 519; chest pain score 3, percent of patients (9 months after treatment, PP): (36.68%); chest pain score 6, number of patients (9 months after treatment, PP): 233; chest pain score 6, percent of patients (9 months after treatment, PP): (16.47%); chest pain score 9, number of patients (9 months after treatment, PP): 2; chest pain score 9, percent of patients (9 months after treatment, PP): (0.14%); chest tightness score 0, number of patients (9 months after treatment, PP): 661; chest tightness score 0, percent of patients (9 months after treatment, PP): (46.71%); chest tightness score 3, number of patients (9 months after treatment, PP): 519; chest tightness score 3, percent of patients (9 months after treatment, PP): (36.68%); chest tightness score 6, number of patients (9 months after treatment, PP): 233; chest tightness score 6, percent of patients (9 months after treatment, PP): (16.47%); chest tightness score 9, number of patients (9 months after treatment, PP): 2; chest tightness score 9, percent of patients (9 months after treatment, PP): (0.14%); change of chest pain score 0, number of patients [3]: 962; change of chest pain score 0, percent of patients [3]: (56.29%); change of chest pain score 3, number of patients [3]: 511; change of chest pain score 3, percent of patients [3]: (29.90%); change of chest pain score 6, number of patients [3]: 150; change of chest pain score 6, percent of patients [3]: (8.78%); change of chest pain score 9, number of patients [3]: 7; change of chest pain score 9, percent of patients [3]: (0.41%); change of chest pain score −3, number of patients [3]: 70; change of chest pain score −3, percent of patients [3]: (4.10%); change of chest pain score −6, number of patients [3]: 9; change of chest pain score −6, percent of patients [3]: (0.53%); change of chest pain score −9, number of patients [3]: 0; change of chest pain score −9, percent of patients [3]: (0.00%); change of chest tightness score 0, number of patients [3]: 933; change of chest tightness score 0, percent of patients [3]: (54.59%); change of chest tightness score 3, number of patients [3]: 598; change of chest tightness score 3, percent of patients [3]: (34.99%); change of chest tightness score 6, number of patients [3]: 87; change of chest tightness score 6, percent of patients [3]: (5.09%)
